Measurements published in patent publication US20070259888A1, “Novel Compounds” (ASTRAZENECA AB, priority 2006, published 2007).

Assays:
[1] = target: T1, human M2 receptor (human Muscarinic receptor subtype 2) (Homo sapiens, UniProt P08172); test: hM2 receptor GTPγS binding; format: biochemical; conditions: CHO membranes expressing hM2, GTPγ35S binding; for EC50: read-out: hM2_EC50
T1 construct: purchased Perkin-Elmer RBHM2M; host or cells: Chinese hamster ovary cells (CHO), membranes
T1 sequence (P08172 1-466): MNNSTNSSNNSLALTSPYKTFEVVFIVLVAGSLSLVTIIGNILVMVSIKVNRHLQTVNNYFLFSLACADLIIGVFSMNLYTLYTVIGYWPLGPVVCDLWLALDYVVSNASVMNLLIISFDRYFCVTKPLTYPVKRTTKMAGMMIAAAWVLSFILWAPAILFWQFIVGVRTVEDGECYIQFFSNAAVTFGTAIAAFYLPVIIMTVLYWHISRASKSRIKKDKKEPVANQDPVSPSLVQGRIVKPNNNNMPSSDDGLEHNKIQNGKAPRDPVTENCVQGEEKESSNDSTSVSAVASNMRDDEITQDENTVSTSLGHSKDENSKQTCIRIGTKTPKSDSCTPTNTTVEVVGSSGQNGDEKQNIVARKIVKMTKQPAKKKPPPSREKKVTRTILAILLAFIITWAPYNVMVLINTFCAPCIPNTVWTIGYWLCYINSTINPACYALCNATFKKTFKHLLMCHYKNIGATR
Experimental: hM2 Receptor GTPyS Binding
Membranes produced from Chinese hamster ovary cells (CHO) expressing the cloned human M2 receptor (human Muscarinic receptor subtype 2, gene bank access NM_000739), were obtained from Perkin-Elmer (RBHM2M). The membranes were thawed at 37° C., passed 3 times through a 23-gauge blunt-end needle, diluted in the GTPγS binding buffer (50 mM Hepes, 20 mM NaOH, 100 mM NaCl, 1 mM EDTA, 5 mM MgCl2, pH 7.4, 100 μM DTT). The EC50, IC50 and Emax of the compounds of the invention were evaluated from 10-point dose-response curves (three fold concentration range) done in 60 μl in 384-well non-specific binding surface plate (Corning). Ten microliters from the dose-response curves plate (5× concentration) were transferred to another 384 well plate containing the following: 10 μg of hM2 membranes, 500 μg of Flashblue beads (Perkin-Elmer) and GDP in a 25 μl volume. An additional 15 μl containing 3.3× (55000 dpm) of GTPγ^35S (0.4 nM final) were added to the wells resulting in a total well volume of 50 μl. Basal and maximal stimulated GTPγ^35S binding was determined in absence and presence of 30 μM of acetylcholine agonist. The membranes/beads mix were pre-incubated for 15 minutes at room temperature with 25 μM GDP prior to distribution in plates (12.5 μM final). The reversal of acetylcholine-induced stimulation (2 μM final) of GTPγ^35S binding was used to assay the antagonist properties (IC50) of the compounds. The plates were incubated for 60 minutes at room temperature with shaking, then centrifuged at 2000 rpm for 5 minutes. The radioactivity (cpm) was counted in a Trilux (Perkin-Elmer).
Values of EC50, IC50 and Emax were obtained using sigmoidal fits of a non-linear curve-fitting program (XLfit version 5.0.6 from ID Business Solutions Limited, Guildford, UK) of percent-stimulated GTPγ^35S binding vs. log (molar ligand).
All EC50 and IC50 values are reported as geometric means of ‘n’ independent experiments. […] The IC50 was the concentration of the compound of the invention at which 50% inhibition of acetylcholine GTPγ^35S binding stimulation has been observed.

[2] = target: T2, hM1 (human Muscarinic receptor subtype 1) (Homo sapiens, UniProt P11229); test: Human M1 calcium mobilization FLIPR assay; format: cell-based; conditions: CHO cells expressing hM1, FLIPR; for EC50: read-out: hM1EC50; for Emax: read-out: hM1Emax
T2 construct: expressed in transfected cells; host or cells: CHO cells (chinese hamster ovary cells, ATCC)
T2 sequence (P11229 1-460): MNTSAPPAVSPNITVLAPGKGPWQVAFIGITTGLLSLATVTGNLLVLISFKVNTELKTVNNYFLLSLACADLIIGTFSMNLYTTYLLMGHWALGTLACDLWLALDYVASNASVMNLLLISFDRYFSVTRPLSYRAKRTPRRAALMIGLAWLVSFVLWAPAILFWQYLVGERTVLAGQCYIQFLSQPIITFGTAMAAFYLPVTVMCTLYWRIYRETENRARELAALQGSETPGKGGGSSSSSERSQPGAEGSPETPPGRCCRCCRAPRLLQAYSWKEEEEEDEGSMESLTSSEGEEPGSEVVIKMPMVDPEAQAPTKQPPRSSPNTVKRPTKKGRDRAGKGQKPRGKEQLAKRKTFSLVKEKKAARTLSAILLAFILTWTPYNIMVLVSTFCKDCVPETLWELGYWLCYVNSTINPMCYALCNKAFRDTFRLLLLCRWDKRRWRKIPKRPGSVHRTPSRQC
Experimental: The compound activity in the present invention (EC50 or IC50) was measured using a 384 plate-based imaging assay that monitors drug induced intracellular Ca^2+ release in whole cells. Activation of hM1 (human Muscarinic receptor subtype 1, gene bank access NM_000738), rM1 (rat Muscarinic receptor subtype 1, gene bank access NM_080773), hM3 (human Muscarinic receptor subtype 3, gene bank access NM_000740NM_000740) and hM5 (human Muscarinic receptor subtype 5, gene bank access NM_0121258) receptors expressed in CHO cells (chinese hamster ovary cells, ATCC) was quantified in a Molecular Devices FLIPR II™ instrument as an increase in fluorescent signal. Inhibition of hM3 and hM5 by compounds was determined by the decrease in fluorescent signal in response to 2 nM acetylcholine activation.
CHO cells were plated in 384-black polylysine coated plate (Costar) at 8000 cells/well/50 μl for 24 hours or 4000 cells/well for 48 hours in a humidified incubator (5% CO2 and 37° C.) in DMEM/F12 medium without selection agent. Prior to the experiment the cell culture medium was removed from the plates by inversion. A loading solution of 30 μl of Hank's balanced salt solution, 10 mM Hepes and 2.5 mM Probenicid at Ph 7.4 (Cat no. 311-520-VL, Wisent) with 2 μM calcium indicator dye (FLUO-3AM, Molecular Probes F14202) was added to each well. Plates were incubated at 37° C. for 60 minutes prior to start the experiment. The incubation was terminated by washing the cells four times in assay buffer, leaving a residual 25 μl buffer per well. Cell plates were then transferred to the FLIPR, ready for compound additions.
The day of experiment, acetylcholine and compounds were diluted in three-fold concentration range (10 points serial dilution) for addition by FLIPR instrument. For all calcium assays, a baseline reading was taken for 30 seconds followed by the addition of 12.5 μl (25 μl for hM1 and rM1) of compounds, resulting in a total well volume of 37.5 μl (50 μl for hM1 and rM1). Data were collected every 1.6 seconds for 300 seconds. For hM3 and hM5 an additional 12.5 μl of acetylcholine (2 nM final) was added at 300 seconds. After this addition of acetylcholine (producing a final volume of 50 μl), the FLIPR continued to collect data every 2 seconds for 240 seconds. The fluorescence emission was read using filter 1 (emission 520-545 nm) by the FLIPR on board CCD camera.
Calcium mobilization output data were calculated as the maximal relative fluorescence unit (RFU) minus the minimal value for both compound and agonist reading frame (except for hM1 and rM1 using only the maximal RFU). Data were analyzed using sigmoidal fits of a non-linear curve-fitting program (XLfit version 5.0.6 from ID Business Solutions Limited, Guildford, UK). All EC50 and IC50 values are reported as geometric means of ‘n’ independent experiments.

Row | SMILES | Emax [1] [%] | EC50 [1] [nM] | EC50 [2] [nM] | Emax [2] [%]
1 | CCOC[C@@H]1CCCN(C[C@H]2CCCC[C@@H]2NC(=O)C2CCCCC2)C1 [N-((1S,2R)-2-{[(3R)-3-(ethoxymethyl)piperidin-1-yl]methyl}cyclohexyl)cyclohexanecarboxamide] | 30 | 1080 | 157 | 75
2 | O=C(N[C@H]1CCCC[C@@H]1CN1CCCCCC1)c1ccc(-n2cccn2)cc1 [N-[(1S,2R)-2-(azepan-1-ylmethyl)cyclohexyl]-4-(1H-pyrazol-1-yl)benzamide] | > 12 | > 30000 | 130 | 70
3 | O=C(N[C@H]1CCCC[C@@H]1CN1CCCCC1)c1ccc(-n2cccn2)nc1 [N-[(1S,2R)-2-(piperidin-1-ylmethyl)cyclohexyl]-6-(1H-pyrazol-1-yl)nicotinamide] | 0 | > 30000 | 26 | 82
4 | C=CCOC[C@@H]1CCCN(C[C@H]2CCCC[C@@H]2NC(=O)c2ccc(-n3ccnc3)nc2)C1 [N-[(1S,2R)-2-({(3R)-3-[(allyloxy)methyl]piperidin-1-yl}methyl)cyclohexyl]-6-(1H-imidazol-1-yl)nicotinamide] | 22 | 216 | 5 | 95
